# Measured values reported in ChEMBL document CHEMBL1201862, “PubChem BioAssay data set” (2004).
# Active and inactive are the calls of the source.
# Tests used:
# [1] = biological target: Cytochrome P450 3A4 (Homo sapiens, UniProt P08684);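 further: CYP3A4 tested as one member of a cytochrome P450 panel screen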
# [2] = biological target: T1, Cytochrome P450 1A2 (Homo sapiens, UniProt P05177);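 further: PubChem cytochrome P450 panel assay, CYP1A2 panel member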
# T1 sequence (P05177 whole entry): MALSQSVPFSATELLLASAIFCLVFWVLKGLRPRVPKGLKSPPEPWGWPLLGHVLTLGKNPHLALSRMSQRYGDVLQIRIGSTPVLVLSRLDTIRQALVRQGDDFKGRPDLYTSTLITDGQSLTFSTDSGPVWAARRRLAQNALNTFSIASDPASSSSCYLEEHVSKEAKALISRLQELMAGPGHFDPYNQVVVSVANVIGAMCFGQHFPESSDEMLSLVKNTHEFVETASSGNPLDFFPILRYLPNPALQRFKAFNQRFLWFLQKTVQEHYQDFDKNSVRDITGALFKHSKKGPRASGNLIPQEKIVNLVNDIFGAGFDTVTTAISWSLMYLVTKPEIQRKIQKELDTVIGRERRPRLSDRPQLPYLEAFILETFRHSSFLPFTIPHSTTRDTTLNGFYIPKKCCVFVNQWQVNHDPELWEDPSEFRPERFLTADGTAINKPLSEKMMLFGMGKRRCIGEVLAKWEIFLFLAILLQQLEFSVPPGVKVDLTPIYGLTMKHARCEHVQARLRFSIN
# [3] = biological target: Cytochrome P450 2D6 (Homo sapiens, UniProt P10635);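 further: CYP2D6 member of a cytochrome P450 panel assay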
# [4] = biological target: T2, Polyadenylate-binding protein 1 (Homo sapiens, UniProt P11940); assay: PABP1 MLLE–PAM2 binding inhibitor potency, dose response, biochemical, fluorescence polarization, FITC-PAM2 peptide (AID 602259); assay type: functional; conditions: read-out: IC50_Mean
# [5] = biological target: T2, Polyadenylate-binding protein 1; assay: PABP1 MLLE–PAM2 interaction inhibitors, dose response, miRNA deadenylation inhibitor project, biochemical, fluorescence polarization, Cy5-PAM2 peptide, secondary (AID 602260); assay type: functional; conditions: read-out: IC50_Mean
# [6] = biological target: T3, Calpain-2 catalytic subunit (Sus scrofa, UniProt P43367); assay: pig calpain II inhibitor potency, dose response, biochemical, fluorogenic peptide substrate (AID 1420); assay type: functional
# T3 sequence (P43367 whole entry): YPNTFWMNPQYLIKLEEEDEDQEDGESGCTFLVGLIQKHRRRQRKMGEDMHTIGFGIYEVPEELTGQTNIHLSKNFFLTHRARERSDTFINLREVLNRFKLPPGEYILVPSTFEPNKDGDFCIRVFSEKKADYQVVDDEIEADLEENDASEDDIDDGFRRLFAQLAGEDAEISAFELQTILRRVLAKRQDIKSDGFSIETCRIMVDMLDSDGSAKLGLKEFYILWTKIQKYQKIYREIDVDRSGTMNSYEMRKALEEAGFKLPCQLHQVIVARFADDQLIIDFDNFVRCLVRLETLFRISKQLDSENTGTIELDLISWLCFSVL
# [7] = tested on: H9c2; assay: cells; assay type: functional, cell-based; conditions: Rattus norvegicus, H9c2, Myocardium;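 further: confirmatory concentration-response retest of ultra-high-throughput screening hits for modulation of myocardial damage; cell death induced by hydrogen peroxide oxidative stress; compound pretreatment for 60 min then peroxide exposure for 2 h; potency is for protecting the cells against peroxide damage rather than for killing them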
# [8] = NIH-3T3 fibroblast cytotoxicity, dose response, cytotoxicity control, cell-based, fluorescence, Alamar Blue, secondary assay (AID 2327); assay type: functional;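 further: NIH-3T3 mouse fibroblasts cultured with fluconazole at 8 µg/mL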
# [9] = biological target: T4, Zinc finger protein mex-5 (Caenorhabditis elegans, UniProt Q9XUB2); assay: MEX-5/TCR-2 RNA interaction inhibitors, dose response, biochemical, C. elegans, fluorescence polarization (AID 1960)
# T4 sequence (Q9XUB2 whole entry): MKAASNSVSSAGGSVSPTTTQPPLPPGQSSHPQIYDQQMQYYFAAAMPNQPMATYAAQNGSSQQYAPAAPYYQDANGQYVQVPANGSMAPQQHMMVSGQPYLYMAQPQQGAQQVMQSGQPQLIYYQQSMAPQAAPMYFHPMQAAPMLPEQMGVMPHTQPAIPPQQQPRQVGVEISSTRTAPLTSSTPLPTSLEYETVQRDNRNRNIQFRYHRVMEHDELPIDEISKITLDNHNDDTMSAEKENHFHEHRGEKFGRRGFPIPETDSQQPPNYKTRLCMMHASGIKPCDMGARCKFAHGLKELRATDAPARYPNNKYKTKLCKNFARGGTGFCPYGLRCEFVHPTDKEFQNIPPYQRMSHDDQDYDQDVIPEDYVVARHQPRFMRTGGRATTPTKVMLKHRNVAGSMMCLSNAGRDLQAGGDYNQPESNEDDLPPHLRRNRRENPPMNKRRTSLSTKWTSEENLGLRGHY
# [10] = C. albicans growth with fluconazole, confirmation, fluorescence, retest (AID 2467); assay type: functional, cell-based
# [11] = biological target: T5, RNA-binding protein pos-1 (Caenorhabditis elegans, UniProt G5EF15); assay: inhibitors of POS-1/mex-3 RNA binding, dose response, biochemical, fluorescence polarization (AID 1964);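 further: purified POS-1 fused to maltose binding protein made in E. coli; potency of compounds blocking POS-1 binding to fluorescent RNA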
# T5 sequence (G5EF15 whole entry): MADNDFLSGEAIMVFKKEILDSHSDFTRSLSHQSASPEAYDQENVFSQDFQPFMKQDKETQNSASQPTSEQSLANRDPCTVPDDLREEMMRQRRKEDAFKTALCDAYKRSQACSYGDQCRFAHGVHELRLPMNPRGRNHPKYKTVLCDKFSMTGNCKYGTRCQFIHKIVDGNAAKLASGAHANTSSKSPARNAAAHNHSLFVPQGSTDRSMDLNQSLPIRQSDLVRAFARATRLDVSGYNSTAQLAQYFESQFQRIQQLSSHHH
# [12] = biological target: Cytochrome P450 2C19 (Homo sapiens, UniProt P33261); assay: Cytochrome panel assay with activity outcomes. Panel member name: p450-cyp2c19 Compounds with AC50 equal or less than 10 uM are considered active; assay type: functional; conditions: read-out: AC50
# [13] = biological target: Cytochrome P450 2C9 (Homo sapiens, UniProt P11712)
# [14] = biological target: T6, Rac GTPase-activating protein 1 (Homo sapiens, UniProt Q9H0H5); assay: MgcRacGAP GTPase-activating activity inhibitors, confirmation, biochemical, ADP Hunter fluorescence, primary and confirmatory (AID 624330); assay type: functional
# T6 sequence (Q9H0H5 whole entry): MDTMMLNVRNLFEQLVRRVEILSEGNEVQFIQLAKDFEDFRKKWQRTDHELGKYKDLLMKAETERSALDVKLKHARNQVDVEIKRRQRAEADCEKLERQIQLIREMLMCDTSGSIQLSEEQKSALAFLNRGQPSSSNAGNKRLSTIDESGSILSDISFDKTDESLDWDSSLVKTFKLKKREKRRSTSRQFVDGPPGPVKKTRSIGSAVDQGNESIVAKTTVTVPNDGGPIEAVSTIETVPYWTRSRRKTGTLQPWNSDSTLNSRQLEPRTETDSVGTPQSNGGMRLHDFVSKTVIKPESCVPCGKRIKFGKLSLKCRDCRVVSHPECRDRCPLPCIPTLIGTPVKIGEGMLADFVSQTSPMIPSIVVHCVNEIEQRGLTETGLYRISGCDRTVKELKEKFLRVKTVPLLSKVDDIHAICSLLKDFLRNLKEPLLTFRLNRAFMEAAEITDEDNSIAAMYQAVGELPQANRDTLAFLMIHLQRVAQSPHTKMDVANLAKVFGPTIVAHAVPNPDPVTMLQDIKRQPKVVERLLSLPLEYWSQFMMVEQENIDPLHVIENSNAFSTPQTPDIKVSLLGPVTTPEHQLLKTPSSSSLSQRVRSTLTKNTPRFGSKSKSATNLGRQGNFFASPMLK
# [15] = Luminescence Cell-Based Dose Retest to Confirm Inhibitors of Cancer Stem Cells. [Related pubchem assays (depositor defined):AID2717, AID2721]; assay type: functional; conditions: Homo sapiens
# [16] = biological target: T7, Heat shock factor protein 1 (Mus musculus, UniProt P38532); assay: inhibition of MG132-induced HSE-luciferase signal, confirmation, cell-based, NIH3T3, luminescence, dose retest (AID 2382); assay type: functional;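 further: NIH3T3 fibroblasts with HSF1-driven luciferase reporter stressed by proteasome inhibitor MG132; luminescence from HSF1-driven luciferase expression after 8 hours of MG132 stress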
# T7 sequence (P38532 whole entry): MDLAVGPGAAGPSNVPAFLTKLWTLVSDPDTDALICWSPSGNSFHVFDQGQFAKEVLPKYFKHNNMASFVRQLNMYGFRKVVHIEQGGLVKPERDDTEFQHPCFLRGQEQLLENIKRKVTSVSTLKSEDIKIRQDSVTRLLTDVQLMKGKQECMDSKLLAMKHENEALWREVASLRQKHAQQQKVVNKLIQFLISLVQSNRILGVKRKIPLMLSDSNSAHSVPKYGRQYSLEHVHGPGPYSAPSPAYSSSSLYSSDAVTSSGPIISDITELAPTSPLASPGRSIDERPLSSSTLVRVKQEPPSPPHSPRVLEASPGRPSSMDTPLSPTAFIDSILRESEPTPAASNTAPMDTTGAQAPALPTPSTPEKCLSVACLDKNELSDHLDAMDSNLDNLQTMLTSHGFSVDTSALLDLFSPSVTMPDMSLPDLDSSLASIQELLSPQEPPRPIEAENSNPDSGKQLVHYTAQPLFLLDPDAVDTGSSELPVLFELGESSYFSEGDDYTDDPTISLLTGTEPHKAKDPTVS
# Cytochrome P450 3A4, sequence (P08684 whole entry): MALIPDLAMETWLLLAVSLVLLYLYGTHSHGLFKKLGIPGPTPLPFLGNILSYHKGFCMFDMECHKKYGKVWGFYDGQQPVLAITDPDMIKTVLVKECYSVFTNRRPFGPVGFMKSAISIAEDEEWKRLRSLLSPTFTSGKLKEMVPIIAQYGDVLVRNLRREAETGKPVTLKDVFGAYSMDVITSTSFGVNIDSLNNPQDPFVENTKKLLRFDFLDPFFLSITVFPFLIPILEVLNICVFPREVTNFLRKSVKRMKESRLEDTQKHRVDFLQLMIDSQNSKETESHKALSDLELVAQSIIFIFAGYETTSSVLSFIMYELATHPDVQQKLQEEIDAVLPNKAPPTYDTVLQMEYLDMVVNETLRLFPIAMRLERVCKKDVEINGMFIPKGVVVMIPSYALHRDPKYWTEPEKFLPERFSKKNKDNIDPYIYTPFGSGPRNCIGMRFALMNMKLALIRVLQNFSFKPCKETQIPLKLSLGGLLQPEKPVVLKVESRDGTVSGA
# Cytochrome P450 2C19, sequence (P33261 whole entry): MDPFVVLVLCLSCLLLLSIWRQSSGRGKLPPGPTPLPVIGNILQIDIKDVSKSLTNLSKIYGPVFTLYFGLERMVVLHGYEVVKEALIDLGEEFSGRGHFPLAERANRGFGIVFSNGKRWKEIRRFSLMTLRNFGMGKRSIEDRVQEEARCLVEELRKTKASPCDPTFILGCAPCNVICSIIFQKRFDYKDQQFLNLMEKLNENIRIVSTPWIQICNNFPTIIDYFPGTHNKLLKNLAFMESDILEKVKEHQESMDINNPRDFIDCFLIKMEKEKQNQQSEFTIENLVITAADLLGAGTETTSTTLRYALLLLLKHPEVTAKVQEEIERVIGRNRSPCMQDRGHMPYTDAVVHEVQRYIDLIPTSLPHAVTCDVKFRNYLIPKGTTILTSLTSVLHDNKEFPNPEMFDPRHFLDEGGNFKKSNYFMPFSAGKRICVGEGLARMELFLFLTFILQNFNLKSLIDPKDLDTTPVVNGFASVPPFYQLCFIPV
# T2 sequence (P11940 whole entry): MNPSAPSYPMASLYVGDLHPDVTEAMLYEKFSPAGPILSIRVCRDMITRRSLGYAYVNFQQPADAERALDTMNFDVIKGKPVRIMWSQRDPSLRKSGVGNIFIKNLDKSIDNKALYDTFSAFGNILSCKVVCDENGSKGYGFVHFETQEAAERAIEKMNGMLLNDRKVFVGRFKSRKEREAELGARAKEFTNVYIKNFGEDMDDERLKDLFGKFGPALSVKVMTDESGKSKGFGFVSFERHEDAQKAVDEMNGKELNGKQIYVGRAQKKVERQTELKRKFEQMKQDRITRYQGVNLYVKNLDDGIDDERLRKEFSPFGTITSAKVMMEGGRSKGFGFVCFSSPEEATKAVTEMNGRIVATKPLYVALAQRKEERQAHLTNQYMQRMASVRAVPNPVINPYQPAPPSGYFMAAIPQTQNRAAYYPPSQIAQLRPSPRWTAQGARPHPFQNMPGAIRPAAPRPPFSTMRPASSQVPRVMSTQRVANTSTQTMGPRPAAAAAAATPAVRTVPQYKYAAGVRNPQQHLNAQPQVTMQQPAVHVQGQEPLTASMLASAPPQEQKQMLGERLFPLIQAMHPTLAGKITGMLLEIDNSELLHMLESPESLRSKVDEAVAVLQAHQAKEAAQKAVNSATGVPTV
# Cytochrome P450 2C9, sequence (P11712 whole entry): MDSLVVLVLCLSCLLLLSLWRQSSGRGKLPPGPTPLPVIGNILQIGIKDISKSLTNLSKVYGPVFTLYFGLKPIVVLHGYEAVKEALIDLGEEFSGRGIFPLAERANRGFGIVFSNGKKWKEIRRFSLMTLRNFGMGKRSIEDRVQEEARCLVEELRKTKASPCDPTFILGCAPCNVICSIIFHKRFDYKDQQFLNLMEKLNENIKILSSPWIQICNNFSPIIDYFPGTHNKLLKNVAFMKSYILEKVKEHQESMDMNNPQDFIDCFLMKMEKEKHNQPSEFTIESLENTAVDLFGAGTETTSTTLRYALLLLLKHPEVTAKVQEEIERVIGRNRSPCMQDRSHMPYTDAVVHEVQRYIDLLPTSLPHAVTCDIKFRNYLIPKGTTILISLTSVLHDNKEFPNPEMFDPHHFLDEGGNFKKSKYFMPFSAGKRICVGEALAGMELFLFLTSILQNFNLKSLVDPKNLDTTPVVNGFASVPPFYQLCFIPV
# Cytochrome P450 2D6, sequence (P10635 whole entry): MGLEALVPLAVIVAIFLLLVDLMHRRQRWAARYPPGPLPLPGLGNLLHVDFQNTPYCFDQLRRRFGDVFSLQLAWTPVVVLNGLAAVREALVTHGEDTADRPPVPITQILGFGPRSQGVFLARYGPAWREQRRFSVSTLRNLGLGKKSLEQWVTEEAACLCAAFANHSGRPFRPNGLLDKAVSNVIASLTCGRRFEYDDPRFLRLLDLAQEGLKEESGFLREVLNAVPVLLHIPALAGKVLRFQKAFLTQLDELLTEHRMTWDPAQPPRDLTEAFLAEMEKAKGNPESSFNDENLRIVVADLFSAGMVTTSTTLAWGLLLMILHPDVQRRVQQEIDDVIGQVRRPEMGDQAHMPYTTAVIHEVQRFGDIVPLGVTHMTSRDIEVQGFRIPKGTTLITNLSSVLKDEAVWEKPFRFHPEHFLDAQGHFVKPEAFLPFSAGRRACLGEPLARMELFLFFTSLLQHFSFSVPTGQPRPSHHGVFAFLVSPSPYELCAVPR
structure (smiles),measurement,setting,value
Cc1ccc(CNC(=O)Cn2cncn2)cc1,AC50,[1],14.1 µM (inconclusive)
same,AC50,[2],39.8 µM (inconclusive)
same,AC50,[3],17.8 µM (inconclusive)
Cc1onc(-c2ccccc2)c1C(=O)NC(=S)NNC(=O)c1ccncc1,IC50,[4],> 66 µM (inactive)
same,IC50,[5],> 66 µM (inactive)
C=C(C)CNC(=S)N/N=C/c1ccc(NC(C)=O)cc1,IC50,[6],13.5 µM (not active)
COc1ccc(N2C(=O)CC(SCCc3nc4ccccc4[nH]3)C2=O)cc1 (stereo unspecified),IC50,[4],> 66 µM (inactive)
same,IC50,[5],> 66 µM (inactive)
CCCNC(=O)c1ccc2c(O)c(O)c(-c3ccc(F)cc3)nc2c1,IC50,[7],14.1 µM (active)
same,EC50,[8],> 150 µM (inactive)
same,EC50,[9],4.47 µM (inconclusive)
same,EC50,[10],> 38 µM (not active)
same,EC50,[11],7.74 µM (inconclusive)
c1ccc(CNc2nc(-c3cccnc3)nc3ccccc23)cc1,AC50,[12],15.8 µM (active)
same,AC50,[2],0.398 µM (active)
same,AC50,[3],15.8 µM (active)
NCCCCNS(=O)(=O)c1cccc2c(Cl)cccc12,AC50,[13],12.6 µM (inconclusive)
same,AC50,[1],25.1 µM (inconclusive)
same,AC50,[2],15.8 µM (inconclusive)
same,AC50,[3],39.8 µM (inconclusive)
Oc1ccc(Br)cc1/C=N/c1ccc2[nH]ncc2c1,IC50,[7],12.6 µM (active)
same,IC50,[14],32.1 µM (active)
CC(C)c1ccc(N2C(=O)CC(Sc3ncccn3)C2=O)cc1 (stereo unspecified),IC50,[4],> 66 µM (inactive)
same,IC50,[5],> 66 µM (inactive)
SC1=NC[C@H](Cc2ccccc2)N1CCCCC1CCCCC1,AC50,[15],6.26 µM (active)
same,IC50,[6],7.52 µM (not active)
c1ccc2c(c1)-c1ccccc1C2N1C[C@H]2CC[C@H](CC2)C1,AC50,[2],0.501 µM (inconclusive)
NS(=O)(=O)c1ccc(NC(S)=Nc2ccc(S(=O)(=O)N3CCCC3)cc2)cc1,IC50,[4],> 66 µM (inactive)
same,IC50,[5],> 66 µM (inactive)
Cc1ccc(-c2nc3ccccc3o2)cc1NC(=O)Cc1cccs1,AC50,[12],15.8 µM (inconclusive)
same,AC50,[2],2 µM (inconclusive)
CCCCN(C(=S)NC(=O)c1ccccc1)c1c(N)n(Cc2ccccc2)c(=O)[nH]c1=O,IC50,[4],> 66 µM (inactive)
same,IC50,[5],> 66 µM (inactive)
CCc1ccccc1N(C(C)=O)c1nc(CN=C=S)cs1,IC50,[6],14.5 µM (not active)
Cc1cc(O)cc(O)c1/C=N/NC(=O)c1ccc2c(c1)OCCO2,IC50,[4],30.8 µM (inactive)
same,IC50,[5],> 66 µM (inactive)
Cc1ccc(-c2nc3cnccn3c2Nc2c(C)cccc2C)o1,IC50,[4],> 66 µM (inactive)
same,IC50,[5],> 66 µM (inactive)
same,EC50,[16],> 195 µM (not active)
COc1cc(/C=N/NC(=O)COc2cccc(F)c2)ccc1OS(=O)(=O)c1ccc(C)cc1,IC50,[6],2.21 µM (not active)
FC(F)(F)c1ccccc1-c1cncnc1NCCN1CCOCC1,AC50,[12],20 µM (inconclusive)
same,AC50,[2],2.51 µM (inconclusive)
same,AC50,[3],15.8 µM (inconclusive)
N=C(N)SCc1cc(Cl)cc(Cl)c1O,AC50,[2],5.01 µM (inconclusive)
O=C(c1ccc(Cl)cc1)c1oc2ccccc2c1CS(=O)(=O)c1ccccc1,IC50,[6],> 50 µM (not active)
O=C(O)c1ccc(Cl)c(NC(=S)NC(=O)c2ccccc2[N+](=O)[O-])c1,IC50,[4],> 66 µM (inactive)
same,IC50,[5],> 66 µM (inactive)
O=C(NC(=S)Nc1ccc(S(=O)(=O)Nc2nccs2)cc1)c1ccccc1,IC50,[4],> 66 µM (inactive)
same,IC50,[5],> 66 µM (inactive)
Cc1ccc(Cl)cc1N1C(=O)CC(Sc2ncccn2)C1=O (stereo unspecified),IC50,[4],> 66 µM (inactive)
same,IC50,[5],> 66 µM (inactive)
NC(=O)CC(NC(=O)Cc1ccc(Br)cc1)c1ccc(NCC2CC2)c([N+](=O)[O-])c1 (stereo unspecified),IC50,[6],14.6 µM (not active)
CCOC(=O)N1CCC2(CC1)C(C#N)=C(N)Oc1[nH]nc(CSc3ccc(C)cc3)c12,IC50,[6],3.34 µM (not active)
O=C(Nc1cccc(F)c1)N1CCCC2(CCN(C(=O)Oc3ccccc3)CC2)C1,AC50,[13],39.8 µM (inconclusive)
same,AC50,[12],25.1 µM (inconclusive)
same,AC50,[2],10 µM (inconclusive)
COC(=O)C1CCN(CC(=O)Nc2sc3c(c2C#N)CCC3)CC1,AC50,[2],15.8 µM (inconclusive)
CC(=O)NCc1c(Cl)cccc1-n1cccc1,AC50,[13],28.2 µM (inconclusive)
same,AC50,[1],39.8 µM (inconclusive)
same,AC50,[12],11.2 µM (inconclusive)
same,AC50,[2],15.8 µM (inconclusive)
